Entries after “also recorded” stand apart in the source; their conditions may differ. Read-outs that look alike come from different tables or passages of the source.
Columns and labels:
[1] = system: 15-PGDH-luciferase fusion reporter in V9m, LS174T and V503 cell lines; test: 15-PGDH-luciferase fusion gene reporter induction in three colon cancer cell lines (stated jointly); assay type: cell-based
[2] = molecular target: recombinant 15-PGDH protein (Homo sapiens (Human), UniProt P15428); test: Inhibition of enzymatic activity of recombinant 15-PGDH in vitro; assay type: biochemical;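 further: activity of recombinant human 15-PGDH assayed in vitro using PGE2 as the substrate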
A549 cells = test: PGE2 levels in medium of IL1-beta stimulated A549 cells; assay type: cell-based
[3] = system: Vaco503 reporter cell line expressing a 15-PGDH luciferase fusion construct; test: 15-PGDH-luciferase fusion gene reporter induction, Vaco503 (V503) cell line; assay type: cell-based
Description: (§1) These cell lines are Vaco-9m (V9m), LS174T, Vaco503 (V503). […] Value of 1.0 on the Y-axis is the basal level of reporter activity in cells treated with drug free DMSO vehicle.
(§2) This Example provides data on a group of structural analogues of SW033291. Data provided includes level of induction of a 15-PGDH-luciferase fusion gene reporter, recorded as % increased luciferase activity over basal level, in three colon cancer cell lines, V9m, V503, and LS174T, engineered to contain the reporter, and treated with either 2.5 uM or 7.5 uM compound (i.e., Values are recorded on a scale where 100 indicates of doubling of luciferase activity over baseline level).
(§3) FIGS. 27(A-C) show graphs that show the level of compound's activity in inducing the 15-PGDH-luciferase fusion reporter in three different test cell line backgrounds, V9m, LS174T, and V503. Each compound was tested at two concentrations, 2.5 uM, and 7.5 uM. Y-axis is luciferase activity.
(§4) Data provided include level of induction of a 15-PGDH-luciferase fusion gene reporter, recorded as % induction of luciferase activity over basal level, in three colon cancer cell lines, V9m, V503, and LS174T, engineered to contain the reporter, and treated with either 2.5 uM or 7.5 uM compound. […] Additionally, for selected compounds is recorded the decrease in PGE2 levels in the media of compound treated A549 cells that have been stimulated with IL-1 beta. Additionally recorded for selected compounds is the effect on A549 cell viability as measured by a CellTiter-Glo assay, and the effect of compounds on A549 cell colony formation.

[4] = system: LS174T reporter cell line expressing a 15-PGDH luciferase fusion construct; test: 15-PGDH-luciferase fusion gene reporter induction, LS174T cell line; assay type: cell-based; details: Homo sapiens
Description: as §1, §2, §3, §4

[5] = system: V9m reporter cell line expressing a 15-PGDH luciferase fusion construct; test: 15-PGDH-luciferase fusion gene reporter induction, V9m cell line; assay type: cell-based; details: for percent reporter induction over basal at […]: read-out: V9M-SC3 Reporter activity % ([…]), Table 18, read-out: V9M-SC3 Reporter activity % (7.5 μM)
Description: as §1, §2, §3, §4

[6] = read-out: Enzyme inhibition % ([…]), recombinant 15-PGDH, […] compound, read-out: Enzyme inhibition % (2.5 μM)
[7] = read-out: Enzyme inhibition % ([…]), recombinant 15-PGDH, […] compound, read-out: Enzyme inhibition % (7.5 μM)
[8] = read-out: Enzyme inhibition % ([…]), Table 18, […] compound, read-out: Enzyme inhibition % (2.5 μM)
[9] = read-out: Enzyme inhibition % ([…]), Table 18, […] compound, read-out: Enzyme inhibition % (7.5 μM)
[10] = read-out: V503-3H9-7 reporter activity, % ([…]), Table 18, […], read-out: V503-3H9-7 reporter activity, % (2.5 μM)
[11] = read-out: V503-3H9-7 reporter activity, % ([…]), Table 18, […], read-out: V503-3H9-7 reporter activity, % (7.5 μM)
[12] = read-out: Ls174T-SC1 reporter activity, % ([…]), Table 18, […], read-out: Ls174T-SC1 reporter activity, % (2.5μM)
[13] = read-out: Ls174T-SC1 reporter activity, % ([…]), Table 18, […], read-out: Ls174T-SC1 reporter activity, % (7.5 μM)
[14] = read-out: V9M-SC3 Reporter activity ([…]) (%), Table 18, […], read-out: V9M-SC3 Reporter activity (2.5 μM) (%)
[15] = read-out: V503 reporter activity ([…]), Table 17, […], read-out: V503 reporter activity (2.5 μM)
[16] = read-out: V503 reporter activity ([…]), Table 17, […], read-out: V503 reporter activity (7.5 μM)
[17] = read-out: 1S174T reporter activity ([…]), Table 17, […], read-out: 1S174T reporter activity (7.5 μM)
[18] = read-out: LS174T reporter activity ([…]), Table 17, […], read-out: LS174T reporter activity (2.5 μM)
[19] = read-out: V9M reporter activity ([…]), Table 17, […], % induction over basal level, read-out: V9M reporter activity (2.5 μM)
[20] = read-out: V9M reporter activity ([…]), Table 17, […], read-out: V9M reporter activity (7.5 μM)

recombinant 15-PGDH protein, sequence (P15428 whole entry): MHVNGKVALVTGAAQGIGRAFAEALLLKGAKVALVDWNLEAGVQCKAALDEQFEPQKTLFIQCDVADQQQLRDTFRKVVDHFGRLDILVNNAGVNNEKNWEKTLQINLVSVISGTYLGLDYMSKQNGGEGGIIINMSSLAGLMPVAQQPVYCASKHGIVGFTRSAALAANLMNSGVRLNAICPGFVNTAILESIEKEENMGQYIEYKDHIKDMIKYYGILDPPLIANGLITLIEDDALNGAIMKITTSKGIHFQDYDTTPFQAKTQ

Q: Which “Induction of 15-PGDH-luciferase reporter, in words” value (“Induction … in words” below) [1] does the source give for `COc1ccc(S(=O)(=O)N(CC(=O)Nc2cccnc2)c2cc(OC)ccc2OC)cc1` [SW202940] here?
A: active in inducing 15-PGDH-luciferase reporter activity

Q: And the inhibition at […] [2, 6]?
A: 24.3%

Q: What about the inhibition at […] [2, 7] of the same compound?
A: 63.3%

Q: With `COc1ccc(OC)c(N(CC(=O)Nc2cccnc2)S(=O)(=O)c2ccc(F)cc2)c1` [SW203736] as the compound, how does the “Effect on PGE2 levels in medium, in words” value (A549 cells; IL1-beta stimulated A549 cells) read?
A: show activity in lowering PGE2

Q: And the “Induction … in words” value [1]?
A: active in inducing 15-PGDH-luciferase reporter activity; also recorded: active in inducing the 15-PGDH-luciferase reporter

Q: And the “Inhibition of recombinant 15-PGDH, in words” value [2]?
A: lesser inhibitory activity at high concentration

Q: And the inhibition at […] [2, 6]?
A: 1.7%

Q: And the inhibition at […] [2, 7]?
A: 24.9%

Q: How did the inhibition at […] [2, 8] turn out when `COc1ccc(N(CC(=O)Nc2cccnc2)S(=O)(=O)c2ccccc2)cc1C` [592469-85-7] was run?
A: 6.23%

Q: What about the inhibition at […] [2, 9] of the same compound?
A: 17.2%

Q: And the activation at […] [3, 10]?
A: 10.2%

Q: What about the activation at […] [3, 11] of the same compound?
A: 5.3%

Q: And the activation at […] [4, 12]?
A: 3.77%

Q: What about the activation at […] [4, 13] of the same compound?
A: 14%

Q: What about the percent reporter induction over basal at […] ([5]; […]) of the same compound?
A: 18.5%

Q: What about the activation at […] [5, 14] of the same compound?
A: -9.74%

Q: What does the source list for `COc1ccc(OC)c(N(CC(=O)Nc2cc(C)no2)S(=O)(=O)c2ccccc2)c1` [SW203704]?
A: Induction of 15-PGDH-luciferase reporter, in words [1]: active in inducing the 15-PGDH-luciferase reporter; inhibition at […] [2, 6]: 4.19%; inhibition at […] [2, 7]: 7.26%

Q: With `CCCC[S+]([O-])c1sc2nc(-c3nccs3)cc(-c3ccccc3)c2c1N` (centres unmarked) [SW208066, 2-(butylsulfinyl)-4-phenyl-6-(thiazol-2-yl)thieno[2,3-b]pyridin-3-amine] as the compound, how does the “PGE2 levels in the medium, ranking” value (A549 cells; 100 nM drug, 15-PGDH inhibitors) read?
A: highest levels of PGE2

Q: And the “V9M reporter activity ([…])” value ([5]; […], % increased luciferase activity over basal level)?
A: 111.63%

Q: And the “V9M reporter activity ([…])” value ([5]; […], % increased luciferase activity over basal level, 100 = doubling)?
A: 122.72%

Q: `COc1ccc(C)cc1N(CC(=O)Nc1cccnc1)S(=O)(=O)c1ccccc1` [526206-05-3] was tested. Which inhibition at […] [2, 8] did it give?
A: 42%

Q: What about the inhibition at […] [2, 9] of the same compound?
A: 70.2%

Q: What about the activation at […] [3, 10] of the same compound?
A: 110%

Q: And the activation at […] [3, 11]?
A: 198%

Q: What about the activation at […] [4, 12] of the same compound?
A: 68.5%

Q: What about the activation at […] [4, 13] of the same compound?
A: 146%

Q: What about the percent reporter induction over basal at […] ([5]; […]) of the same compound?
A: 114%

Q: And the activation at […] [5, 14]?
A: 23.1%

Q: For `COc1ccc(S(=O)(=O)N(CC(=O)N2CCCCC2)c2cc(OC)ccc2OC)cc1` [SW207999], which “Induction … in words” value [1] is on record?
A: active in inducing the 15-PGDH-luciferase reporter

Q: And the “Inhibition of recombinant 15-PGDH, in words” value [2]?
A: lesser inhibitory activity at high concentration

Q: What about the inhibition at […] [2, 6] of the same compound?
A: -0.86%

Q: And the inhibition at […] [2, 7]?
A: 3.34%

Q: How did the “Induction … in words” value [1] turn out when `C[S+]([O-])c1sc2nc(-c3cccs3)cc(-c3ccccc3)c2c1N` (centres unmarked) [SW208079, 2-(methylsulfinyl)-4-phenyl-6-(thiophen-2-yl)thieno[2,3-b]pyridin-3-amine] was run?
A: marked loss of activity in inducing the cell line reporters

Q: Which results are given for `COc1ccc(S(=O)(=O)N(CC(=O)Nc2ccccc2Br)c2cc(Cl)ccc2OC)cc1OC` [compound 771081]?
A: activation at […] [3, 15]: 31.9%; activation at […] [3, 16]: 51.7%; activation at […] [4, 17]: 15.4%; activation at […] [4, 18]: 5.74%; activation at […] [5, 19]: -14.2%; activation at […] [5, 20]: 7.58%

Q: Which activation at […] ([3]; read-out: V503 reporter activity ([…]), […], % increased luciferase activity over basal level, read-out: V503 reporter activity (2.5 uM)) does the source give for `CCCC[S+]([O-])c1ncccc1[N+](=O)[O-]` (centres unmarked) [SW208069, 2-(butylsulfinyl)-3-nitropyridine] here?
A: 19.5%

Q: And the activation at […] ([3]; read-out: V503 reporter activity ([…]), […], % increased luciferase activity over basal level, read-out: V503 reporter activity (7.5 uM))?
A: 15.1%

Q: What about the activation at […] ([4]; read-out: LS174T reporter activity ([…]), […], % increased luciferase activity over basal level, read-out: LS174T reporter activity (2.5 uM)) of the same compound?
A: 19.5%

Q: And the activation at […] ([4]; read-out: LS174T reporter activity ([…]), […], % increased luciferase activity over basal level, read-out: LS174T reporter activity (7.5 uM))?
A: 15.1%

Q: What about the activation at […] ([5]; read-out: V9M reporter activity ([…]), […], % increased luciferase activity over basal level, 100 = doubling, read-out: V9M reporter activity (2.5 uM)) of the same compound?
A: -14.5%

Q: What about the activation at […] ([5]; read-out: V9M reporter activity ([…]), […], % increased luciferase activity over basal level, read-out: V9M reporter activity (7.5 uM)) of the same compound?
A: 0.23%

Q: What does the source list for `COc1ccc(N(CC(=O)Nc2ccccc2Br)S(=O)(=O)c2ccccc2[N+](=O)[O-])c(OC)c1` [compound 1002065]?
A: activation at […] [3, 15]: 38.1%; activation at […] [3, 16]: 52.5%; activation at […] [4, 17]: 15.2%; activation at […] [4, 18]: 9.9%; activation at […] [5, 19]: 7.38%; activation at […] [5, 20]: 18.6%

Q: Which results are given for `COc1ccc(N(CC(=O)Nc2ccccc2Br)S(=O)(=O)c2ccc(NC(C)=O)cc2)cc1` [compound 771064]?
A: activation at […] [3, 15]: -13.8%; activation at […] [3, 16]: -24.8%; activation at […] [4, 17]: -29.6%; activation at […] [4, 18]: -2.11%; activation at […] [5, 19]: 43.3%; activation at […] [5, 20]: -19.2%

Q: How did the activation at […] [3, 15] turn out when `COc1ccc(S(=O)(=O)N(CC(=O)Nc2ccc(Br)cc2)c2cc(Cl)ccc2OC)cc1OC` [compound 771432] was run?
A: 33.7%

Q: And the activation at […] [3, 16]?
A: 42.8%

Q: What about the activation at […] [4, 17] of the same compound?
A: 4.24%

Q: What about the activation at […] [4, 18] of the same compound?
A: 3.86%

Q: And the activation at […] [5, 19]?
A: -7.11%

Q: And the activation at […] [5, 20]?
A: -3.13%

Reference: patent US10301320B2, “Compositions and methods of modulating 15-PGDH activity” (CASE WESTERN RESERVE UNIVERSITY, priority 2012, dated 2019)
